Experimental data taken from ChEMBL document CHEMBL1154168, “New 2-aryloxy-3-phenyl-propanoic acids as peroxisome proliferator-activated receptors alpha/gamma dual agonists with improved potency and reduced adverse effects on skeletal muscle function” (J Med Chem, 2009).
pEC50: −log10 of the molar value. Activity calls are given as the source filed them. No cut-off for these calls is given here.

Legend:
[1] = biological target: T1, Chloride channel isoform 1 (Rattus norvegicus) (UniProt Q7TT78); assay: Inhibition of CIC1 in Wistar rat extensor digitorum longus muscle assessed as decrease in resting chloride channel conductance at 100 uM by electrophysiology method; type: tissue-based; design: scale not given: the % may be the effect or the level left
T1 sequence (whole entry): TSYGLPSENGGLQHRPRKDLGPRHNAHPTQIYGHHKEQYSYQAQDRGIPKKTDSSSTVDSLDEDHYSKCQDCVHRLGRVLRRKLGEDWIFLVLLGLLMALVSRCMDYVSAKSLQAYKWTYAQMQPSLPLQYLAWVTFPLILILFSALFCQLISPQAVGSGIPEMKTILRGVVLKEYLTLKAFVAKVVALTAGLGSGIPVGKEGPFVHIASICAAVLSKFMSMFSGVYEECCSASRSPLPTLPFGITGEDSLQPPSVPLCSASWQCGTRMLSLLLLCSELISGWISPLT

[2] = biological target: T1, Chloride channel isoform 1 (Rattus norvegicus); assay: Inhibition of CIC1 in Wistar rat extensor digitorum longus muscle assessed as decrease in resting chloride channel conductance at 5 uM by electrophysiology method; type: tissue-based; design: scale not given: the % may be the effect or the level left
[3] = tested on: Extensor digitorum longus; assay: Inhibition of resting potassium conductance in Wistar rat extensor digitorum longus muscle by electrophysiology method; type: functional, tissue-based
[4] = biological target: T2, Peroxisome proliferator-activated receptor alpha (Homo sapiens) (UniProt Q07869); assay: Agonist activity at GAL4-tagged human PPARalpha ligand binding domain expressed in human HepG2 cells assessed as receptor transactivation by luciferase reporter gene assay relative to Wy-14643; type: cell-based
T2 sequence (whole entry): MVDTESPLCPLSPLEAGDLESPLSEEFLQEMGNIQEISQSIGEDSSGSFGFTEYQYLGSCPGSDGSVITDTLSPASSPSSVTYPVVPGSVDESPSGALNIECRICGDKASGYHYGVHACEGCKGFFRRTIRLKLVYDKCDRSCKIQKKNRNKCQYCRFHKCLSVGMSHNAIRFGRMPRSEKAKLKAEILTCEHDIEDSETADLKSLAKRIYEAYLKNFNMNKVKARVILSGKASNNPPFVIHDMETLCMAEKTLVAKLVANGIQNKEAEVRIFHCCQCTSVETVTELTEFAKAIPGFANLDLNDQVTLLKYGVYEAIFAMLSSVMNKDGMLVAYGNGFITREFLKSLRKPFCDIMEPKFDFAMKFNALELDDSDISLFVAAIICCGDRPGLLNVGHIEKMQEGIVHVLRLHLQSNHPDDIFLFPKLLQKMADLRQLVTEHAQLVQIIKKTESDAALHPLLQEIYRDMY

[5] = biological target: T3, Peroxisome proliferator-activated receptor gamma (Homo sapiens, UniProt P37231)
T3 sequence (P37231 whole entry): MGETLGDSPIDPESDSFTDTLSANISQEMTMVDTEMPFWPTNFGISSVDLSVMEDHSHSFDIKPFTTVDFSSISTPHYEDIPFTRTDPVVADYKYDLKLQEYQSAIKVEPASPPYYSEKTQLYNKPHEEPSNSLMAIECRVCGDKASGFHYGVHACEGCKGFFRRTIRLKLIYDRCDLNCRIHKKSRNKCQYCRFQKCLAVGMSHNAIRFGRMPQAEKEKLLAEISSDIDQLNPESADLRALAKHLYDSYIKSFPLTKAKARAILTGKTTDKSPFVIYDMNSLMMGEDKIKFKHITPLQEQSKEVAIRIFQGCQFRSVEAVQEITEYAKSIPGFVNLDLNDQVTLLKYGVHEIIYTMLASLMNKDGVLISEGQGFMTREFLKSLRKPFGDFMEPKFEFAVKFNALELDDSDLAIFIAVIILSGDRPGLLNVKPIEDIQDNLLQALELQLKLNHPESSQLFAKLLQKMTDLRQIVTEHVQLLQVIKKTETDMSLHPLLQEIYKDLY

[6] = biological target: T4, Peroxisome proliferator-activated receptor alpha (Homo sapiens, UniProt Q07869); assay: Agonist activity at GAL4-tagged human PPARalpha ligand binding domain expressed in human HepG2 cells assessed as receptor transactivation by luciferase reporter gene assay; type: cell-based; details: for pEC50: read-out: EC50; for EC50: hepg2
T4 sequence (Q07869 whole entry): T2 sequence (whole entry)

[7] = biological target: T1, Chloride channel isoform 1 (Rattus norvegicus); assay: Inhibition of CIC1 in Wistar rat extensor digitorum longus muscle assessed as decrease in resting chloride channel conductance at 50 uM by electrophysiology method; type: tissue-based; design: scale not given: the % may be the effect or the level left
[8] = biological target: T3, Peroxisome proliferator-activated receptor gamma; details: hepg2

Q: Which Activity [1] does the source give for `CC(C)(Oc1ccc(C(=O)c2ccc(Cl)cc2)cc1)C(=O)O` here?
A: 11%

Q: With `O=C(O)[C@H](Cc1ccccc1)Oc1ccc(-c2ccccc2)cc1` as the compound, how does the Activity [2] read?
A: 2%

Q: And the Activity [3]?
A: inactive

Q: And the Efficacy [4]?
A: 116%

Q: And the Activity [1]?
A: 12%

Q: How did the Activity [3] turn out when `O=C(O)[C@H](Cc1ccccc1)Oc1ccc(CCc2ccccc2)cc1` was run?
A: inactive

Q: What about the pEC50 [5] of the same compound?
A: 6.40

Q: What about the Activity [1] of the same compound?
A: 24%

Q: How did the pEC50 [6] turn out when `O=C(O)C(Cc1ccccc1)Oc1ccc(CSc2ccccc2)cc1` (racemic) was run?
A: 6.51

Q: What about the pEC50 [5] of the same compound?
A: 6.40

Q: What about the Efficacy [4] of the same compound?
A: 92%

Q: `O=C(O)[C@@H](Cc1ccccc1)Oc1ccc(CCc2ccccc2)cc1` was tested. Which EC50 [6] did it give?
A: Not Active

Q: What about the pEC50 [5] of the same compound?
A: 5.80

Q: And the Efficacy [4]?
A: inactive

Q: What does the source list for `O=C(O)C(Cc1ccccc1)Oc1ccc(C#Cc2ccccc2)cc1` (racemic)?
A: pEC50 [6]: 5.87; pEC50 [5]: 6.27; Efficacy [4]: 36%

Q: `O=C(O)[C@H](Cc1ccccc1)Oc1ccc(Cc2ccccc2)cc1` was tested. Which Activity [7] did it give?
A: 2%

Q: And the pEC50 [6]?
A: 7.94

Q: What about the Activity [3] of the same compound?
A: inactive

Q: And the pEC50 [5]?
A: 6.24

Q: And the Activity [1]?
A: 9%

Q: Which results are given for `O=C(O)C(Cc1ccccc1)Oc1ccc(Oc2ccccc2)cc1` (racemic)?
A: pEC50 [6]: 7.22; pEC50 [5]: 5.92; Efficacy [4]: 126%

Q: With `O=C(O)C(Cc1ccccc1)Oc1ccc(CNc2ccccc2)cc1` (racemic) as the compound, how does the pEC50 [6] read?
A: 5.85

Q: And the pEC50 [5]?
A: 5.03

Q: And the Efficacy [4]?
A: 120%

Q: `O=C(O)C(Cc1ccccc1)Oc1ccc(COc2ccccc2)cc1` (racemic) was tested. Which pEC50 [6] did it give?
A: 6.22

Q: What about the pEC50 [5] of the same compound?
A: 5.52

Q: What about the Efficacy [4] of the same compound?
A: 107%

Q: Which results are given for `CN(CCOc1ccc(CC2SC(=O)NC2=O)cc1)c1ccccn1` (stereo not drawn) [ROSIGLITAZONE]?
A: EC50 [6]: Not Active; Efficacy [4]: inactive

Q: With `O=C(O)C(Cc1ccccc1)Oc1ccc(CCc2ccccc2)cc1` (racemic) as the compound, how does the pEC50 [6] read?
A: 6.48

Q: And the pEC50 [5]?
A: 6.07

Q: What about the Efficacy [4] of the same compound?
A: 86%

Q: `O=C(O)[C@@H](Cc1ccccc1)Oc1ccc(Cc2ccccc2)cc1` was tested. Which pEC50 [6] did it give?
A: 5.62

Q: And the pEC50 [5]?
A: 5.24

Q: And the Efficacy [4]?
A: 82%

Q: How did the pEC50 [6] turn out when `O=C(O)C(Cc1ccccc1)Oc1ccc(OCc2ccccc2)cc1` (racemic) was run?
A: 6.97

Q: What about the pEC50 [5] of the same compound?
A: 5.62

Q: What about the Efficacy [4] of the same compound?
A: 112%

Q: How did the pEC50 [6] turn out when `O=C(O)C(Cc1ccccc1)Oc1ccc(CCCc2ccccc2)cc1` (racemic) was run?
A: 6.14

Q: What about the Efficacy [4] of the same compound?
A: 67%

Q: With `O=C(O)C(Cc1ccccc1)Oc1ccc(NCc2ccccc2)cc1` (racemic) as the compound, how does the pEC50 [6] read?
A: 5.44

Q: And the pEC50 [5]?
A: 4.89

Q: And the Efficacy [4]?
A: 78%

Q: With `O=C(O)C(Cc1ccccc1)Oc1ccc(Cc2ccccc2)cc1` (racemic) as the compound, how does the pEC50 [6] read?
A: 7.80

Q: What about the pEC50 [5] of the same compound?
A: 6.24

Q: And the Efficacy [4]?
A: 115%

Q: With `Cc1cccc(Nc2cc(Cl)nc(SCC(=O)O)n2)c1C` [PIRINIXIC ACID] as the compound, how does the EC50 [8] read?
A: Not Active

Q: How did the Activity [1] turn out when `CC(C)(Oc1ccc(Cl)cc1)C(=O)O` was run?
A: 28%

Q: Which results are given for `O=C(O)C(Cc1ccccc1)Oc1ccc(SCc2ccccc2)cc1` (racemic)?
A: pEC50 [6]: 6.31; pEC50 [5]: 5.85; Efficacy [4]: 134%

Q: With `O=C(Cc1ccccc1)c1ccc(OC(Cc2ccccc2)C(=O)O)cc1` (racemic) as the compound, how does the pEC50 [6] read?
A: 5.74

Q: What about the pEC50 [5] of the same compound?
A: 5.04

Q: What about the Efficacy [4] of the same compound?
A: 106%
